Test results reported in patent US20040077634A1, “Treatment of diseases characterized by excessive or insufficient cell death” (priority 2001, published 2004).

Tests used:
[1] = tested on: caspase-9, caspase-3 and caspase-7 processing; DFF45/ICAD and PARP cleavage; experiment: Processing of caspases and caspase substrates in Cc/dATP-stimulated cell extract, Western blotting; assay type: biochemical
Protocol: Activation of endogene caspases is induced by addition of 1 mM dATP and 1 μM horse heart cytochrome c to cytosolic extract (protein concentration; 5-10 mg/ml) in the presence of DEVD-AFC and the compound (final concentration 100 μM). Activated DEVD'ases (AFC release) is measured by fluorometry in 96-well plates at 37° C. After end measurements 2× LSB-Mechaptoethanol are added to the samples for assessment of caspase processing by immunoblot analysis.
Next, the effect of the compounds on the processing of caspases and caspase substrates in the in vitro model system was analysed by Western blotting. Caspase-9, caspase-3 and caspase-7 were processed into p35, p17, and p20 active fragments, respectively, in response to Cc/dATP. Accordingly, Cc/dATP induced a threefold induction in DEVDase activity and cleavage of the caspase-3 substrates DFF45/ICAD and PARP.

[2] = target: T1, apoptosome complex (Apaf-1 and caspase-9) (Homo sapiens, UniProt O14727+P55211); experiment: Apoptosome formation: co-immunoprecipitation of Apaf-1 with caspase-9 in cell extract; assay type: binding; details: 100 μM
T1 construct: Caspase-9 antibody precipitated practically all caspase-9 present in the cell extract; endogenous in cells; host or cells: cell extract
T1 sequence (O14727 1-1248): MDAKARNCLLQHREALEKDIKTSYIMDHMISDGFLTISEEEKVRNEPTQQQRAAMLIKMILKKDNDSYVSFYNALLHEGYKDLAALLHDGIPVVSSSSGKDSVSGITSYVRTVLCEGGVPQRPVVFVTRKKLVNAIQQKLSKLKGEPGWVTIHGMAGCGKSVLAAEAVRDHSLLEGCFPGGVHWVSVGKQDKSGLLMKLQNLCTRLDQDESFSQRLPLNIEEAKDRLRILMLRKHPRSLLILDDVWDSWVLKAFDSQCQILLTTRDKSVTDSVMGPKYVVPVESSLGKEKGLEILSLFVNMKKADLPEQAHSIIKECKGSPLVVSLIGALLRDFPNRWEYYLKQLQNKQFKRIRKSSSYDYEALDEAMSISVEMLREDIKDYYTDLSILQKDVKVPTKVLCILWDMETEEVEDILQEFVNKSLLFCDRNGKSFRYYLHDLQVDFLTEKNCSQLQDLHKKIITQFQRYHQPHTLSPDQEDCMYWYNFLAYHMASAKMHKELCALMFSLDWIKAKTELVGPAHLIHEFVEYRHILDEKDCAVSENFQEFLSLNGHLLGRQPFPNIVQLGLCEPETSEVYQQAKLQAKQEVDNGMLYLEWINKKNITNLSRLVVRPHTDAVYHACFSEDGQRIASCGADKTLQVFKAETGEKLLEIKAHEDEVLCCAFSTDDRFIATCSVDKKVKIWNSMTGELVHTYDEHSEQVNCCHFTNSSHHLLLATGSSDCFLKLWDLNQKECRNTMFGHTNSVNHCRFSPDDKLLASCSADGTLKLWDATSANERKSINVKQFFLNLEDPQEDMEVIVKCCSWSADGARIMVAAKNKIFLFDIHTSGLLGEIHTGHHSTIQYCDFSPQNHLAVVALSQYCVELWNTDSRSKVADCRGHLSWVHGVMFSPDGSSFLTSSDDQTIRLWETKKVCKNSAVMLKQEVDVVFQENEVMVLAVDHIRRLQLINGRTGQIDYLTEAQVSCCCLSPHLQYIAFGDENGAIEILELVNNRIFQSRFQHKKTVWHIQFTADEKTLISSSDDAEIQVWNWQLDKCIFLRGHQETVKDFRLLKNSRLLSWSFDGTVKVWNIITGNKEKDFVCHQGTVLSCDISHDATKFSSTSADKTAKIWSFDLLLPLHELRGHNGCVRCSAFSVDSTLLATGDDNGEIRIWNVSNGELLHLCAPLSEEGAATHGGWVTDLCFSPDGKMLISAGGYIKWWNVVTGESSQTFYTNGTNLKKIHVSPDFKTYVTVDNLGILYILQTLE
T1 sequence (P55211 1-416): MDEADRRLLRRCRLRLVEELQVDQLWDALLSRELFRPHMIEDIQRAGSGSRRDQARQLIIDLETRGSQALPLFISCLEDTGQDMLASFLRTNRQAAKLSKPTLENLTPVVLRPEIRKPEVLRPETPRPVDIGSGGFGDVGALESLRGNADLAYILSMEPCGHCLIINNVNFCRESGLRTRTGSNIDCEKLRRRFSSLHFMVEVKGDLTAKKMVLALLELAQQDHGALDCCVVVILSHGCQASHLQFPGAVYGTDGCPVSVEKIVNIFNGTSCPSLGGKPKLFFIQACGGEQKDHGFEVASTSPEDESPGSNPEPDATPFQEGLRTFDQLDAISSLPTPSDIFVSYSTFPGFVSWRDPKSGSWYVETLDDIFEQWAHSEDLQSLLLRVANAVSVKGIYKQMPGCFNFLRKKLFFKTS
Protocol: Next, it was tested whether compound f interferes with the formation of apoptosome complex in response to Cc/dATP. Cell extracts were incubated with Cc/dATP in the presence or absence of 100 μM compound f or 1 μM zVAD-fmk for 1 hour prior to the immunoprecipitation (IP) of caspase-9. […] Hsp90, which has been proposed to associate with Apaf-1 and prevent oligomerization and caspase-9 recruitment, was not co-immunoprecipitated with caspase-9.

[3] = target: T2, recombinant caspase-9 (Homo sapiens, UniProt P55211); experiment: Recombinant caspase-9 activity, cleavage of LEHD-AFC; assay type: biochemical; details: 25 to 100 μM; LEHD-AFC substrate
T2 sequence (P55211 1-315 limits assumed): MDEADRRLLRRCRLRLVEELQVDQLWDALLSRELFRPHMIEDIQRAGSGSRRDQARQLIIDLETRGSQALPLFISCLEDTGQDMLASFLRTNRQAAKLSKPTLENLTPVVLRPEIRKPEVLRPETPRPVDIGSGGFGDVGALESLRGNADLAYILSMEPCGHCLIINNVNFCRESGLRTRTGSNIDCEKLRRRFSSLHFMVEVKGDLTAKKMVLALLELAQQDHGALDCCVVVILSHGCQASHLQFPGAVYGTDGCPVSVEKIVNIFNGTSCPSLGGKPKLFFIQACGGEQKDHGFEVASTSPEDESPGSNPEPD
T2 sequence (P55211 331-416 limits assumed): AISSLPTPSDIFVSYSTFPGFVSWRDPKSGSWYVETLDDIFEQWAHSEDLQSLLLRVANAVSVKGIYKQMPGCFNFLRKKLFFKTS
Protocol: The inhibition of the DEVDase activity in the in vitro caspase activation system could be due to a direct inhibition of caspase-9, -3, or -7 activities, or to the inhibition of the apoptosome formation. To test if compounds a, f, and g were specific caspase inhibitors, recombinant caspase-3 and caspase-9 were incubated with the three compounds and the enzymatic activities of caspases were monitored by analysing the cleavage of the caspase-3 substrate DEVD-AFC or the caspase-9 substrate LEHD-AFC, respectively.

[4] = tested on: MCF-neo cells; experiment: TNF-induced cell death of MCF-neo cells; assay type: cell-based
Protocol: The ability of compound f to inhibit cell death was examined in MCF-neo and MCF-casp3 cells. […] To analyse the mechanism of the action of compound f in alive cells, MCF-casp3 cells were treated with TNF (5 ng/ml) in the presence of 50 μM compound f and the activity of caspase-3-like proteases was measured by a DEVDase enzyme assay.

With `O=C(Nc1cccc(C(F)(F)F)c1)Nc1cc(Cl)ccc1C(=O)O` [Compound f, [N-(2-Carboxy-5-chlorophenyl)-N′-(3-trifluoromethylphenyl)]urea] the “processing of caspase-9” value ([1]; 10 μM, compared with the vehicle control) was “slightly more procaspase-9 remained unprocessed”, the “processing of caspase-9” value ([1]; 100 μM) was “almost completely inhibited” and the “inhibition of caspase-9, -3 and -7 processing and DFF45/ICAD and PARP cleavage” value ([1]; cell extracts stimulated with Cc/dATP, Western blot, dose dependence) was “dose-dependent inhibition”. The “ability of the caspase-9 antibody to precipitate caspase-9” value [2] was “no effect”, the “co-immunoprecipitation of Apaf-1 and caspase-9” value ([2]; 1 hour with Cc/dATP prior to IP of caspase-9) was “significantly inhibited” and the “inhibition of recombinant caspase-9 activity” value [3] was “failed to inhibit”. The “cell death induced by TNF” value ([4]; 1 ng/ml TNF, 50 μM) was “completely blocked”, the “protection against TNF-induced cell death” value ([4]; 5 ng/ml TNF, 50 μM) was “protection was still significant” and the “inhibition of TNF-induced cell death” value ([4]; 10 ng/ml TNF) was “no inhibition”.
